Entries after “also recorded” stand apart in the source; their conditions may differ.
Tests used:
[1] = tested on: MK-801-induced deficits in the Novel Object Recognition Task; assay: MK-801-induced novel object recognition test; type: in vivo, Sprague-Dawley rats; conditions: rats; 0.1 mg/kg, 0.3 mg/kg and 1 mg/kg; MK-801 0.2 mg/kg
Description: The term “MK-801-induced novel object recognition test” herein refers to the experiment to evaluate in vivo efficacy in the schizophrenic cognitive impairment animal model. The detail method is described below. MK-801 is also known as dizocilpine.
MK-801-Induced Novel Object Recognition Test:
Testing was performed using 6-week-old male Sprague Dawley rats. On the testing day, rats were habituated at the empty box for 10 minutes individually. The disclosed compound was administered orally 1 h prior, followed by administration of MK-801 (0.2 mg/kg, s.c.) 30 min prior to the acquisition trial for 10 min. The retention trial for 10 min was performed with the intertrial interval for 80 min. The rat was allowed to explore the same objects in the acquisition trial. In the retention trial, one of the objects used in the acquisition trial was replaced with a novel one. The exploration time of licking, sniffing or touching was measured in the retention trial. Efficacy of each compound at the dose of 0.3, 1, 3 or 10 mg/kg p.o. (n=12-15) was determined by the recognition index (exploration time to the novel object/total exploration time). The scores of MK-801/vehicle and MK-801/compound-treated groups were statistically analyzed by Dunnett's test.
MK-801 induced disruptions of Novel Object Recognition
Drugs: Test compounds were formulated in 10% Tween 80/90% sterile water vehicle. […]

[2] = tested on: plasma protein; assay: Human plasma protein binding (PPB); type: in vitro ADME
Description: (§1) These assays were performed according to known methods as generally described in the following references: Conde-Ceide et al. ACS Med. Chem. Lett. 2015, 6, 716-720; Morris et al. J. Med. Chem. 2014, 57, 10192-10197; and Bubser et al. ACS Chem. Neurosci. 2014, 5, 920-942. Abbreviations which have been used in the descriptions of the following tables are; PPB is plasma protein binding; BHB is brain homogenate binding; and CLint is intrinsic clearance in hepatic microsomes.

[3] = Rat brain homogenate binding (BHB); type: in vitro ADME
Description: as §1

[4] = Mouse hepatic microsomal intrinsic clearance; type: in vitro ADME; conditions: mouse hepatic microsomes
Description: as §1

[5] = target: CYP2C9 (Homo sapiens, UniProt P11712); assay: P450 inhibition 2C9; type: in vitro ADME
Chain of CYP2C9 (P11712 whole entry): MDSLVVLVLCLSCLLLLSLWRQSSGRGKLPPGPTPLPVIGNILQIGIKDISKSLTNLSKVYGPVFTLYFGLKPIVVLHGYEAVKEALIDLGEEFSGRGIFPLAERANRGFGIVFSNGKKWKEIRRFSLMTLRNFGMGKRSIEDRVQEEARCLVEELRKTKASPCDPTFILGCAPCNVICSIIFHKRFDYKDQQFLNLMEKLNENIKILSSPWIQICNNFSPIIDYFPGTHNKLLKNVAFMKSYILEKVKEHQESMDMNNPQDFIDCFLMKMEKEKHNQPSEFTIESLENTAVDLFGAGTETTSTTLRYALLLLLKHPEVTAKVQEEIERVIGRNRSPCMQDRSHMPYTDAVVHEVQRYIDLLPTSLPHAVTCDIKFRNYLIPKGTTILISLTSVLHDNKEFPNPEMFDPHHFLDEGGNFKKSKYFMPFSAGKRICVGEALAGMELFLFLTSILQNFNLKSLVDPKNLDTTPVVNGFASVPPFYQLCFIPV
Description: as §1

Q: Which results are given for `CC(=O)N[C@H]1CC[C@@H](n2ncc(Cl)c2C(=O)Nc2ncc(C#Cc3ccccc3)cc2C)CC1` [Compound 12, 1-(cis-4-acetamidocyclohexyl)-4-chloro-N-(3-methyl-5-(phenylethynyl)pyridin-2-yl)-1H-pyrazole-5-carboxamide]?
A: reversal of MK-801-induced deficits in the Novel Object Recognition Task [1]: dose-dependently reversed; also recorded: caused reversal; Human PPB (% bound) [2]: 98.8 % bound; Rat BHB (% bound) [3]: 99.7 % bound; CLint scaled [4]: 103 mL/min/kg; IC50 [5]: 5.7 µM

From patent publication US20240182445A1 (ONO PHARMACEUTICAL CO., LTD., priority 2019, published 2024)
